The subject of one data set is Cryptococcus neoformans. Description: Antifungal activity in vitro, resazurin growth inhibition: Cryptococcus neoformans (B66663). The settings on record: for IC50: read-out: Inf. F: Cryptococcus neoformans B66663, pIC50 (converted). It counts as cell-based. In a few lines: (§1)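 Fungi (10^3 cfu/well) grown in RPMI-1640 with L-glutamine, 2% glucose, MOPS pH 7.0, against 2- or 4-fold compound dilutions up to 64 μM. Dermatophytes incubated one week or more at 27° C. Growth inhibition read fluorimetrically (λex 550, λem 590 nm) after resazurin addition and further incubation.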
A general note: Alamar Blue is a resazurin reagent that responds to reducing activity.

The test system of a further data set is Scedosporium apiospermum. Description: Antifungal activity in vitro, resazurin growth inhibition: Scedosporium apiospermum (IHEM3817). It counts as cell-based. The settings on record: for IC50: read-out: Inf. H: Scedosporium apiospermum IHEM3817, pIC50 (converted). In a few lines:
as §1

Another data set has as its system Rhizopus oryzae. Description: Antifungal activity in vitro, resazurin growth inhibition: Rhizopus oryzae (IHEM5223). It counts as cell-based. The settings on record: for IC50: Rhizopus arrhizus, read-out: Inf. J: Rhizopus oryzae IHEM5223, pIC50 (converted). In a few lines: as §1
In the next data set the test system is Sporothrix schenkii. Description: Antifungal activity in vitro, resazurin growth inhibition: Sporothrix schenkii (B62482). The following applies: for IC50: read-out: Inf. A: Sporothrix schenkii B62482, pIC50 (converted). The class given is cell-based. An outline of the steps: as §1
For another data set, the system named is Microsporum canis. Briefly: Antifungal activity in vitro, resazurin growth inhibition: Microsporum canis (B68128). It counts as cell-based. The settings on record: for IC50: read-out: Inf. B: Microsporum canis B68128, pIC50 (converted). In a few lines:
(§2)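 Resazurin conversion to fluorescent resorufin (ex 550/em 590 nm) served as the growth readout. Compounds spanned 2- or 4-fold serial dilutions with 64 μM top in-test concentration; inoculum 10^3 cfu per well in MOPS-buffered RPMI-1640 (pH 7.0, 2% glucose). Incubation species-dependent, dermatophytes at 27° C. for ≥1 week.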

Another data set has as its system Rhizomucor miehei. Description: Antifungal activity in vitro, resazurin growth inhibition: Rhizomucor miehei (IHEM13391). It counts as cell-based. The following applies: for IC50: read-out: Inf. K: Rhizomucor miehei IHEM13391, pIC50 (converted). In a few lines: as §1
Another data set concerns Aspergillus fumigatus. Briefly: Antifungal activity in vitro, resazurin growth inhibition: Aspergillus fumigatus (B42928). The class given is cell-based. The settings on record: for IC50: read-out: Inf. E: Aspergillus fumigatus B42928, pIC50 (converted). In a few lines:
as §1

The test system of the next data set is Trichophyton rubrum. Description: Antifungal activity in vitro, resazurin growth inhibition: Trichophyton rubrum (B68183). The class given is cell-based. The following applies: for IC50: read-out: Inf. C: Trichophyton rubrum B68183, pIC50 (converted). An outline of the steps:
as §2

A further data set deals with Candida parapsilosis. Briefly: Antifungal activity in vitro, resazurin growth inhibition: Candida parapsilosis (B66126). It counts as cell-based. The following applies: for IC50: Lodderomyces parapsilosis, read-out: Inf. D: Candida parapsilosis B66126, pIC50 (converted). In a few lines: as §1
For data set [1], the system named is Trichophyton mentagrophytes. Briefly: Antifungal activity in vitro, resazurin growth inhibition: Trichophyton mentagrophytes (B70554). The class given is cell-based. The settings on record: for IC50: read-out: Inf. G: Trichophyton mentagrophytes B70554, pIC50 (converted). In a few lines:
as §2

The test system of a further data set is Scedosporium prolificans. Briefly: Antifungal activity in vitro, resazurin growth inhibition: Scedosporium prolificans (IHEM21157). The following applies: for IC50: Lomentospora prolificans, read-out: Inf. I: Scedosporium prolificans IHEM21157, pIC50 (converted). It counts as cell-based. In a few lines:
as §1

As a reminder, the melting point is the temperature of the solid-liquid transition. Consider `Cc1cccc2c1CNC(c1cc3ccccc3s1)c1cccn1-2.Cl` (centres unmarked) [Compound 1], for which the melting point was 242.4 to 247.7 °C. Besides, in the data set on Cryptococcus neoformans, the IC50 was over 64600 nM. Further, the IC50 with Scedosporium apiospermum was over 64600 nM. The IC50 in the data set on Rhizopus oryzae was over 64600 nM. In addition, the IC50 in the data set on Sporothrix schenkii was 3020 nM. In addition, the IC50 with Microsporum canis is 447 nM. Besides, the IC50 in the data set on Rhizomucor miehei was over 64600 nM. For the same molecule, in the data set on Aspergillus fumigatus, the IC50 is 2000 nM. Besides, the IC50 in the data set on Trichophyton rubrum is 67.6 nM. Moreover, the IC50 in the data set on Candida parapsilosis was 45700 nM. In data set [1], the IC50 was 204 nM. Besides, the IC50 in the data set on Scedosporium prolificans was 1820 nM.
For the molecule `FC(F)(F)c1cc(C2=NCc3c(Cl)cccc3-n3cccc32)ccn1` [Compound 3], the melting point lay within 158.2 to 160.6 °C. Besides, the IC50 with Cryptococcus neoformans was over 64600 nM. Further, the IC50 in the data set with Scedosporium apiospermum is 2140 nM. Moreover, in the data set with Rhizopus oryzae, the IC50 is over 64600 nM. The IC50 in the data set on Sporothrix schenkii is over 64600 nM. Further, the IC50 in the data set with Microsporum canis is 126 nM. Moreover, in the data set on Rhizomucor miehei, the IC50 was over 64600 nM. For the same molecule, the IC50 with Aspergillus fumigatus is 1350 nM. The IC50 in the data set with Trichophyton rubrum was 42.7 nM. Besides, in the data set with Candida parapsilosis, the IC50 was over 64600 nM. Moreover, the IC50 in data set [1] is 229 nM. Also, the IC50 with Scedosporium prolificans is 3020 nM.
As for `Clc1cccc2c1-n1cccc1C(c1cc3ccccc3o1)=NC2` [Compound 5], the melting point was 159.9 to 160.8 °C. Moreover, the IC50 with Cryptococcus neoformans was 3550 nM. Besides, in the data set with Scedosporium apiospermum, the IC50 was 6030 nM. Moreover, in the data set on Rhizopus oryzae, the IC50 is over 64600 nM. Also, the IC50 in the data set with Sporothrix schenkii is 661 nM. Further, the IC50 in the data set on Microsporum canis is 316 nM. Further, in the data set on Rhizomucor miehei, the IC50 was 7940 nM. In addition, the IC50 in the data set on Aspergillus fumigatus was 2690 nM. In addition, the IC50 with Trichophyton rubrum is 69.2 nM. The IC50 in the data set with Candida parapsilosis was over 64600 nM. In [1], the IC50 is 107 nM. For the same molecule, the IC50 with Scedosporium prolificans is 309 nM.
Molecule `Cc1cccc2cc(C3=NCc4c(Cl)cccc4-n4cccc43)oc12` [Compound 7] registered a melting point of 175.2 to 177.3 °C. Also, the IC50 in the data set on Cryptococcus neoformans was 759 nM. The IC50 in the data set on Scedosporium apiospermum was 513 nM. Further, in the data set on Rhizopus oryzae, the IC50 was over 64600 nM. Also, in the data set on Sporothrix schenkii, the IC50 is 2750 nM. For the same molecule, the IC50 in the data set on Microsporum canis was 174 nM. For the same molecule, the IC50 in the data set on Rhizomucor miehei was 7080 nM. Moreover, the IC50 with Aspergillus fumigatus was 302 nM. The IC50 in the data set with Trichophyton rubrum is 64.6 nM. Besides, the IC50 in the data set on Candida parapsilosis was 9770 nM. The IC50 in data set [1] was 245 nM. Also, the IC50 with Scedosporium prolificans is 214 nM.
`Clc1cccc2c1CN=C(c1ccc3occc3c1)c1cccn1-2` [Compound 8] displayed a melting point of 163.9 to 164.1 °C. The IC50 in the data set on Cryptococcus neoformans was 4270 nM. Moreover, the IC50 in the data set with Scedosporium apiospermum was 10200 nM. Besides, the IC50 in the data set with Rhizopus oryzae is over 15800 nM. Further, the IC50 in the data set with Sporothrix schenkii is 14100 nM. Also, the IC50 with Microsporum canis is 427 nM. Further, the IC50 with Rhizomucor miehei is 44700 nM. Besides, the IC50 in the data set with Aspergillus fumigatus was 490 nM. For the same molecule, the IC50 in the data set on Trichophyton rubrum is 38.9 nM. Also, the IC50 in the data set on Candida parapsilosis was 794 nM. The IC50 in data set [1] was 178 nM. In addition, the IC50 in the data set on Scedosporium prolificans is 437 nM.
`Clc1cc(Cl)c2c(c1)-n1cccc1C(c1ccc3ncsc3c1)=NC2` [Compound 187]: in the data set with Cryptococcus neoformans, the “Inf. F: Cryptococcus neoformans B66663, pIC50” value (from here on “Inf. F”) is listed as 5.46. Moreover, the “Inf. H: Scedosporium apiospermum IHEM3817, pIC50” value (“Inf. H” for short) with Scedosporium apiospermum is 5.79. Moreover, the “Inf. J: Rhizopus oryzae IHEM5223, pIC50” value in the data set with Rhizopus oryzae is under 4.19. Also, in the data set on Sporothrix schenkii, the “Inf. A: Sporothrix schenkii B62482, pIC50” value was determined as 5.09. The “Inf. B: Microsporum canis B68128, pIC50” value with Microsporum canis worked out at 5.68. Also, the “Inf. K: Rhizomucor miehei IHEM13391, pIC50” value (“Inf. K” below) in the data set on Rhizomucor miehei is listed as under 4.19. In the data set with Aspergillus fumigatus, the “Inf. E: Aspergillus fumigatus B42928, pIC50” value (“Inf. E” for short) stood at 5.98. Further, the “Inf. C: Trichophyton rubrum B68183, pIC50” value (shortened to “Inf. C”) in the data set on Trichophyton rubrum came out at 6.77. Further, in the data set with Candida parapsilosis, the “Inf. D: Candida parapsilosis B66126, pIC50” value (from here on “Inf. D”) is 4.50. For the same molecule, in [1], the “Inf. G: Trichophyton mentagrophytes B70554, pIC50” value (from here on “Inf. G”) is 6.22. Moreover, the “Inf. I: Scedosporium prolificans IHEM21157, pIC50” value (“Inf. I” for short) in the data set with Scedosporium prolificans worked out at 6.92.
With `Clc1cccc2c1CN=C(c1ccc3scnc3c1)c1cccn1-2` [Compound 188], the “Inf. F” value in the data set on Cryptococcus neoformans was determined as 4.98. Moreover, the “Inf. H” value with Scedosporium apiospermum is listed as 6.29. Also, the “Inf. J: Rhizopus oryzae IHEM5223, pIC50” value with Rhizopus oryzae is reported as under 4.19. Besides, the “Inf. A: Sporothrix schenkii B62482, pIC50” value in the data set on Sporothrix schenkii is reported as under 4.19. Also, in the data set on Microsporum canis, the “Inf. B: Microsporum canis B68128, pIC50” value was 6.20. Moreover, in the data set on Rhizomucor miehei, the “Inf. K” value is recorded as 4.42. For the same molecule, in the data set with Aspergillus fumigatus, the “Inf. E” value was 5.56. Further, the “Inf. C” value in the data set with Trichophyton rubrum is reported as 6.64. Besides, in the data set with Candida parapsilosis, the “Inf. D” value worked out at 4.90. Besides, the “Inf. G” value in data set [1] stood at 6.05. The “Inf. I” value in the data set with Scedosporium prolificans stood at 6.24.
For `Cc1nc2cc(C3=NCc4c(Cl)cccc4-n4cccc43)ccc2s1` [Compound 191], the “Inf. F” value in the data set on Cryptococcus neoformans was determined as 5.00. Moreover, the “Inf. H” value in the data set with Scedosporium apiospermum amounted to 4.88. In addition, the “Inf. J: Rhizopus oryzae IHEM5223, pIC50” value with Rhizopus oryzae is under 4.19. The “Inf. A: Sporothrix schenkii B62482, pIC50” value in the data set on Sporothrix schenkii is 4.75. In addition, the “Inf. B: Microsporum canis B68128, pIC50” value in the data set on Microsporum canis came to 5.69. Moreover, the “Inf. K” value in the data set on Rhizomucor miehei is under 4.19. In addition, the “Inf. E” value in the data set on Aspergillus fumigatus is 5.42. Further, the “Inf. C” value in the data set on Trichophyton rubrum amounted to 6.18. The “Inf. D” value in the data set with Candida parapsilosis was under 4.19. Also, in data set [1], the “Inf. G” value is 5.80. Moreover, in the data set with Scedosporium prolificans, the “Inf. I” value amounted to 6.35.
As to `Cn1ccc2ccc(C3=NCc4c(Cl)cccc4-n4cccc43)cc21` [Compound 196], in the data set with Cryptococcus neoformans, the “Inf. F” value amounted to 5.84. Further, the “Inf. H” value in the data set with Scedosporium apiospermum was found to be 4.35. Further, in the data set on Rhizopus oryzae, the “Inf. J: Rhizopus oryzae IHEM5223, pIC50” value is listed as under 4.19. Further, the “Inf. A: Sporothrix schenkii B62482, pIC50” value in the data set on Sporothrix schenkii worked out at 5.00. For the same molecule, the “Inf. B: Microsporum canis B68128, pIC50” value with Microsporum canis amounted to 6.36. Also, in the data set on Rhizomucor miehei, the “Inf. K” value is under 4.19. Moreover, the “Inf. E” value in the data set with Aspergillus fumigatus is recorded as 5.65. The “Inf. C” value with Trichophyton rubrum is 6.77. Besides, the “Inf. D” value in the data set on Candida parapsilosis came to 5.25. Also, the “Inf. G” value in data set [1] turned out to be 6.17. Further, the “Inf. I” value in the data set with Scedosporium prolificans came out at 5.72.

The values are drawn from patent US9493468B2, “Antifungal 5,6-dihydro-4H-pyrrolo[1,2-a][1,4]benzo-diazepines and 6H-pyrrolo[1,2-a][1,4]benzodiazepines substituted with heterocyclic derivatives” (Janssen Pharmaceutica NV, priority 2011, dated 2016).
